Patent US7759072B2, “Immunoassay method and reagent therefor” (Sekisui Medical Co., Ltd., priority 2005, dated 2010)

target: T1, apo-D-amino acid oxidase (Sus scrofa, UniProt P00371); assay: Comparison of reactivity between various D-amino acids as substrates of FAD-reactivated apo-D-amino acid oxidase (peroxidase/DA-64 colorimetric, Hitachi 7170); format: biochemical, porcine; conditions: 5 mM D-amino acid in reagent 1, 50 mM Tris-HCl pH 8.3; 10 U/ml apo-D-amino acid oxidase, FAD sample; 700 nm; D-valine = 100
T1 construct: Apo-D-amino acid oxidase extracted and purified from the porcine kidneys is known and can be suitably used; purchased Calzyme Inc. 176A0025
Protocol: Reagent 1 containing 50 mM Tris-HCl (pH 8.3), 5 mM DA-64 (Wako Pure Chemical Industries), and 5 mM D-amino acid, reagent 2 containing 10 U/ml apo-D-amino acid oxidase (Calzyme Inc., Catalog No. 176A0025) and 5 U/ml peroxidase, and aqueous FAD solution as a sample were applied to a Hitachi 7170 automated analyzer at a setting of two-point end-mode and using a parameters of 7 μl for a sample, 180 μl for R1, 90 μl for R2, and 700 nm for a wavelength for determination.
As in 1), the activity of the reconstituted apoenzyme was confirmed. Assays only varying types of the D-amino acids were then performed. As D-amino acids, D-forms of Ala, Met, Val, Ile, Phe, Pro, Ser, Thr, Asn, Leu, Tyr, Trp, Asp, Glu, His, and Arg were each used. The percent reactivities of the above-mentioned various D-amino acids were calculated to the value of D-valine which was defined as 100.

T1 sequence (P00371 whole entry): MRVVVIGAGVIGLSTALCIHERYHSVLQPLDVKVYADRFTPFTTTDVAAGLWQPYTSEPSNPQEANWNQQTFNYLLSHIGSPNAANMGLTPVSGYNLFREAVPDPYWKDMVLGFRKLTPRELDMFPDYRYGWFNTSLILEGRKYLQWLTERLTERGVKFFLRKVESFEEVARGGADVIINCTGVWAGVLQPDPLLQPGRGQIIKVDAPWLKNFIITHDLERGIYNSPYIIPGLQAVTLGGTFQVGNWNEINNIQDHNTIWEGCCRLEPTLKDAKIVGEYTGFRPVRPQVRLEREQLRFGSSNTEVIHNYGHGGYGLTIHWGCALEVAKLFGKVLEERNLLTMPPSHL

**Q.** Which “percent reactivity of D-amino acid (relative to D-valine defined as 100)” value does the source give for C[C@@H](N)C(=O)O [D-Ala] here?
**A.** The value was 136%.

**Q.** For NC(N)=NCCCC(N)C(=O)O [D-Arg], which “percent reactivity of D-amino acid (relative to D-valine defined as 100)” value is on record?
**A.** Its value is 8%.

**Q.** With CC[C@@H](C)[C@@H](N)C(=O)O [D-Ile] as the compound, how does the “percent reactivity of D-amino acid (relative to D-valine defined as 100)” value read?
**A.** The value was 178%.

**Q.** How did the “percent reactivity of D-amino acid (relative to D-valine defined as 100)” value turn out when CC(C)C[C@@H](N)C(=O)O [D-Leu] was run?
**A.** The value was 97%.

**Q.** For CSCC[C@@H](N)C(=O)O [D-Met], which “percent reactivity of D-amino acid (relative to D-valine defined as 100)” value is on record?
**A.** Its value is 322%.

**Q.** Which “percent reactivity of D-amino acid (relative to D-valine defined as 100)” value does the source give for N[C@H](Cc1ccccc1)C(=O)O [D-Phe] here?
**A.** Its value is 170%.

**Q.** For O=C(O)[C@H]1CCCN1 [D-Pro, D-proline], which “percent reactivity of D-amino acid (relative to D-valine defined as 100)” value is on record?
**A.** The value was 374%.

**Q.** For N[C@H](CO)C(=O)O [D-Ser], which “percent reactivity of D-amino acid (relative to D-valine defined as 100)” value is on record?
**A.** Its value is 117%.

**Q.** N[C@H](Cc1c[nH]c2ccccc12)C(=O)O [D-Trp] was tested. Which “percent reactivity of D-amino acid (relative to D-valine defined as 100)” value did it give?
**A.** Its value is 14%.

**Q.** For N[C@H](Cc1ccc(O)cc1)C(=O)O [D-Tyr, D-tyrosine], which “percent reactivity of D-amino acid (relative to D-valine defined as 100)” value is on record?
**A.** The value was 159%.

**Q.** For CC(C)[C@@H](N)C(=O)O [D-Val, D-valine], which “percent reactivity of D-amino acid (relative to D-valine defined as 100)” value is on record?
**A.** Its value is 100%.
